PubChem BioAssay (NCI)
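The compound was tested at five concentrations on cells cultured in 96-well plates, with a 48-hour exposure period. GI50 marks 50% less growth. TGI is the concentration that stops growth completely.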

These compounds were tested on 786-0 renal (assay: DTP human tumour cell line panel, 48 h).

Row | SMILES | GI50 [µM] | TGI [µM]
1 | C[C@H]1CCC/C=C/[C@@H]2C[C@H](N)C[C@H]2[C@H](O)/C=C/C(=O)O1 | > 100 | > 100
2 | Cc1sc(C)c(-c2ccc(CO)o2)c1-c1ccc(CO)o1 | – | > 100
3 | COc1ccc(-c2cc(-c3cc(Cl)ccc3Cl)nc3nc(=S)[nH]c(N)c23)cc1 | 20.1 | 37.4
4 | CC1=C(C)C(=O)O[C@@H]([C@](C)(O)[C@]2(O)CC[C@@]3(O)[C@@H]4C[C@H]5O[C@]56CC=CC(=O)[C@]6(C)[C@H]4CC[C@]23C)C1 | 0.284 | 1.96
5 | CNC(=O)c1ccc(-c2cnc3ncc(Cc4ccc5ncccc5c4)n3n2)cc1F | 64.3 | > 100
6 | COc1ccc2c(-c3cc4ccccc4o3)cc(=O)oc2c1 | – | 78.6
7 | O=C(Nc1cc(-c2ccccc2)[nH]n1)c1ccc(Cl)cc1 | 72.4 | > 100
8 | CCCSc1cc(Cl)nc(N)n1 | > 100 | > 100
9 | CN1CCN(Cc2ccc(NC(=O)c3ccc(C(C)(C)C)c(C#Cc4cnc5cccnn45)c3)cc2C(F)(F)F)CC1 | 1.67 | 3.24
10 | C=CC(=O)N1CCN(c2ncnc3c(F)c(-c4c(O)cccc4F)c(Cl)cc23)CC1 | 11.4 | 25.4
11 | C=CCOc1c(Br)cc(Br)cc1Br | 34.1 | > 100
12 | Cn1c(N)nc2c(nc(OCc3ccccc3)n2C2OC(CO)C(O)C2O)c1=O (centres undefined) | – | > 100
13 | CC(=O)n1c(-c2ccc(Cl)cc2)nc2c(c1=O)C(c1ccc(Cl)cc1)c1sc3c(Cl)cccc3c1O2 (centres undefined) | 0.48 | 1.7
14 | COc1cc(/C=C2\CC3C4CC=C5CC(N6CCCC6)CC[C@]5(C)C4CC[C@]3(C)C2OC(C)=O)ccc1OCCN1CCCC1 (some centres undefined) | 1.73 | 3.16
15 | COc1ccccc1C(=O)c1ccc2ccccc2c1 | – | > 100
16 | CS(=O)(=O)Nc1ccc(-c2ccc3c(NC(=O)C4CC4)n[nH]c3c2)cc1 | > 25 | > 25
17 | C=C1C(=O)O[C@H]2[C@H]1CC/C(COC(=O)c1cc3cc(OC)ccc3[nH]1)=C\CC[C@@]1(C)O[C@@H]21 | 1.27 | 2.68
18 | COCC(=O)OC1CCn2c1nc1c2C(=O)C(C)=C(NC(C)=O)C1=O (centres undefined) | – | 18.4
19 | COc1ccc(C2C(C#N)=C(N)OC3=C2CCCc2ccc(F)cc23)cc1OC (centres undefined) | 14.7 | 29.8
20 | COC(=O)c1c(O)ccc2[nH]c(C)c(C#N)c12 | 31.6 | > 100
21 | COc1ccc2c(c1)C=CC(C#N)N2C(=O)c1ccccc1 (centres undefined) | < 0.01 | > 100

The compounds below were run on ACHN renal (assay: DTP human tumour cell line panel, 48 h).

Row | SMILES | GI50 [µM] | TGI [µM]
22 | C[C@H]1CCC/C=C/[C@@H]2C[C@H](N)C[C@H]2[C@H](O)/C=C/C(=O)O1 | > 100 | > 100
23 | Cc1sc(C)c(-c2ccc(CO)o2)c1-c1ccc(CO)o1 | 64.2 | > 100
24 | COc1ccc(-c2cc(-c3cc(Cl)ccc3Cl)nc3nc(=S)[nH]c(N)c23)cc1 | 27.1 | 98.4
25 | CC1=C(C)C(=O)O[C@@H]([C@](C)(O)[C@]2(O)CC[C@@]3(O)[C@@H]4C[C@H]5O[C@]56CC=CC(=O)[C@]6(C)[C@H]4CC[C@]23C)C1 | 0.29 | 1.45
26 | CNC(=O)c1ccc(-c2cnc3ncc(Cc4ccc5ncccc5c4)n3n2)cc1F | > 100 | > 100
27 | COc1ccc2c(-c3cc4ccccc4o3)cc(=O)oc2c1 | – | > 100
28 | O=C(Nc1cc(-c2ccccc2)[nH]n1)c1ccc(Cl)cc1 | 5.27 | > 100
29 | CCCSc1cc(Cl)nc(N)n1 | > 100 | > 100
30 | CN1CCN(Cc2ccc(NC(=O)c3ccc(C(C)(C)C)c(C#Cc4cnc5cccnn45)c3)cc2C(F)(F)F)CC1 | 1.99 | 3.69
31 | C=CC(=O)N1CCN(c2ncnc3c(F)c(-c4c(O)cccc4F)c(Cl)cc23)CC1 | 4.84 | 17.7
32 | C=CCOc1c(Br)cc(Br)cc1Br | 16.5 | > 100
33 | Cn1c(N)nc2c(nc(OCc3ccccc3)n2C2OC(CO)C(O)C2O)c1=O (centres undefined) | – | > 100
34 | CC(=O)n1c(-c2ccc(Cl)cc2)nc2c(c1=O)C(c1ccc(Cl)cc1)c1sc3c(Cl)cccc3c1O2 (centres undefined) | 1 | 3.91
35 | COc1cc(/C=C2\CC3C4CC=C5CC(N6CCCC6)CC[C@]5(C)C4CC[C@]3(C)C2OC(C)=O)ccc1OCCN1CCCC1 (some centres undefined) | 1.73 | 3.22
36 | COc1ccccc1C(=O)c1ccc2ccccc2c1 | – | > 100
37 | CS(=O)(=O)Nc1ccc(-c2ccc3c(NC(=O)C4CC4)n[nH]c3c2)cc1 | > 25 | > 25
38 | C=C1C(=O)O[C@H]2[C@H]1CC/C(COC(=O)c1cc3cc(OC)ccc3[nH]1)=C\CC[C@@]1(C)O[C@@H]21 | 0.817 | 2.12
39 | COCC(=O)OC1CCn2c1nc1c2C(=O)C(C)=C(NC(C)=O)C1=O (centres undefined) | – | 19.5
40 | COc1ccc(C2C(C#N)=C(N)OC3=C2CCCc2ccc(F)cc23)cc1OC (centres undefined) | 19.9 | 41.7
41 | COC(=O)c1c(O)ccc2[nH]c(C)c(C#N)c12 | 20.6 | > 100
42 | COc1ccc2c(c1)C=CC(C#N)N2C(=O)c1ccccc1 (centres undefined) | 0.0411 | > 100

What follows are compounds tested on HCT-116 colon (assay: DTP human tumour cell line panel, 48 h).

Row | SMILES | GI50 [µM] | TGI [µM]
43 | C[C@H]1CCC/C=C/[C@@H]2C[C@H](N)C[C@H]2[C@H](O)/C=C/C(=O)O1 | > 100 | > 100
44 | Cc1sc(C)c(-c2ccc(CO)o2)c1-c1ccc(CO)o1 | 0.0695 | > 100
45 | COc1ccc(-c2cc(-c3cc(Cl)ccc3Cl)nc3nc(=S)[nH]c(N)c23)cc1 | 15.1 | 28.4
46 | CC1=C(C)C(=O)O[C@@H]([C@](C)(O)[C@]2(O)CC[C@@]3(O)[C@@H]4C[C@H]5O[C@]56CC=CC(=O)[C@]6(C)[C@H]4CC[C@]23C)C1 | 0.113 | 1.09
47 | CNC(=O)c1ccc(-c2cnc3ncc(Cc4ccc5ncccc5c4)n3n2)cc1F | > 100 | > 100
48 | COc1ccc2c(-c3cc4ccccc4o3)cc(=O)oc2c1 | – | > 100
49 | O=C(Nc1cc(-c2ccccc2)[nH]n1)c1ccc(Cl)cc1 | 9.22 | > 100
50 | CCCSc1cc(Cl)nc(N)n1 | > 100 | > 100
51 | CN1CCN(Cc2ccc(NC(=O)c3ccc(C(C)(C)C)c(C#Cc4cnc5cccnn45)c3)cc2C(F)(F)F)CC1 | 1.67 | 3.08
52 | C=CC(=O)N1CCN(c2ncnc3c(F)c(-c4c(O)cccc4F)c(Cl)cc23)CC1 | 9.19 | 23.1
